Here are results for 24 compounds from ChEMBL document CHEMBL1765075, “Discovery and structure-activity relationship of 3-aminopyrid-2-ones as potent and selective interleukin-2 inducible T-cell kinase (Itk) inhibitors” (J Med Chem, 2011).

The target in data set [1] is T1, Receptor-type tyrosine-protein kinase FLT3 (Homo sapiens, UniProt P36888).
T1 sequence (P36888 whole entry): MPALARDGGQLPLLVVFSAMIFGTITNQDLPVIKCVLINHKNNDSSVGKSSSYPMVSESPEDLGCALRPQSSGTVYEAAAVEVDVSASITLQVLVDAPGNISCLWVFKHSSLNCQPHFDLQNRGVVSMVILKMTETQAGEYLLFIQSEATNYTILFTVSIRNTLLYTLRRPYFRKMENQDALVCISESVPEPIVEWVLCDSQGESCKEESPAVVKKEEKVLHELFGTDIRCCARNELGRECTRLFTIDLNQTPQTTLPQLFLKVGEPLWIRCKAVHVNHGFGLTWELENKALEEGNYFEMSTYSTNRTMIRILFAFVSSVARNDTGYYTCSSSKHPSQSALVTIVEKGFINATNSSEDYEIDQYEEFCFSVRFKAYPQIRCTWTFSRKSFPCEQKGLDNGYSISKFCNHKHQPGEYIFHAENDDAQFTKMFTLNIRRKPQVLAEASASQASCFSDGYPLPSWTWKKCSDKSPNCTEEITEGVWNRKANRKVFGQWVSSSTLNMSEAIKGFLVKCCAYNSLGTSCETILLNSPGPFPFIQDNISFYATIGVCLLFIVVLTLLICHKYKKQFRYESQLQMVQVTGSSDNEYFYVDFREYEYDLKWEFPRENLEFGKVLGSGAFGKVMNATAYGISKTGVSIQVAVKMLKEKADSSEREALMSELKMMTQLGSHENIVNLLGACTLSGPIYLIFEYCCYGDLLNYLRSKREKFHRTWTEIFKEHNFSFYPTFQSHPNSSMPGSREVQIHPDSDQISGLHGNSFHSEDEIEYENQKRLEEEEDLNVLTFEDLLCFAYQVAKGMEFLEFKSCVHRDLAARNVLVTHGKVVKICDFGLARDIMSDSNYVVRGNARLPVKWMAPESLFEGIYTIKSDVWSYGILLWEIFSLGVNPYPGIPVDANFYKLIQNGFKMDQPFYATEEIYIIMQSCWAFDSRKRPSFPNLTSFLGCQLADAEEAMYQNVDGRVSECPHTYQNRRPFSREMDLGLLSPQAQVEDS
As to the kind of experiment: Inhibition of Flt3 after 20 mins by radiometric phosphate incorporation assay.

Data set [2] has as its target Mast/stem cell growth factor receptor Kit (Homo sapiens, UniProt P10721). Briefly: Inhibition of c-Kit after 45 mins by radiometric phosphate incorporation assay.
Data set [3] concerns the target T2, Tyrosine-protein kinase ITK/TSK (Homo sapiens, UniProt Q08881).
T2 sequence (Q08881 whole entry): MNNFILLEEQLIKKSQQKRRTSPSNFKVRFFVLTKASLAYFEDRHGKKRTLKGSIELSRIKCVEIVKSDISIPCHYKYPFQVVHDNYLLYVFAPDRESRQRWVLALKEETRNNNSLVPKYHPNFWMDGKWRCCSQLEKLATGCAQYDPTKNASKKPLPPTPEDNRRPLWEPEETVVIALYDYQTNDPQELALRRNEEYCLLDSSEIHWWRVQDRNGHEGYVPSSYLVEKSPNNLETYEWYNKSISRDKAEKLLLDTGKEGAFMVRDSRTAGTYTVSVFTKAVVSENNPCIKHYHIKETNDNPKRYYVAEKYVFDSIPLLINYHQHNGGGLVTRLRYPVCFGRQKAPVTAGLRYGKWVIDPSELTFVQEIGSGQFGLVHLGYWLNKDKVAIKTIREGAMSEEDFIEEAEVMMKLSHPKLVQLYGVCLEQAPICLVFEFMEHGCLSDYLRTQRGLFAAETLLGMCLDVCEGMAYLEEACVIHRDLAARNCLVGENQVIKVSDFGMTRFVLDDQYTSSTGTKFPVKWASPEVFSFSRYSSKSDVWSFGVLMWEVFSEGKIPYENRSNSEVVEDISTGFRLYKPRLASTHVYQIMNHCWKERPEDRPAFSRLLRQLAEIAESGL
Briefly: Inhibition of Itk after 40 mins by radiometric phosphate incorporation assay.

Data set [4] is described as follows: Solubility of the compound in phosphate buffer at pH 7.4 by high throughput shake flask assay. The data set is classed as physicochemical.
Data set [5] can be described thus: Permeability across apical to basolateral side of human Caco2 cells after 120 mins by LC-MS/MS analysis. Format: ADME, cell-based. The settings on record: Caco-2, read-out: permeability.
A short description of data set [6]: Permeability across basolateral to apical side of human Caco2 cells after 120 mins by LC-MS/MS analysis. Format: ADME, cell-based. The settings on record: Caco-2, read-out: permeability.
Data set [7] concerns the target Proto-oncogene tyrosine-protein kinase Src (Homo sapiens, UniProt P12931). Briefly: Inhibition of Src after 10 mins by radiometric phosphate incorporation assay.
Data set [8] is described as follows: Octanol-phosphate buffer partition coefficient, log D of the compound at pH 7.4 by HPLC analysis. The data set is classed as physicochemical.
The target in data set [9] is Tyrosine-protein kinase ITK/TSK (Homo sapiens) (UniProt Q08881). As to the kind of experiment: Inhibition of Itk at 30 uM after 40 mins by radiometric phosphate incorporation assay.
Data set [10] shares this target. Particulars: 3 uM.
Description: Inhibition of Itk at 3 uM after 40 mins by radiometric phosphate incorporation assay

Each structure is given as a SMILES string. ≈ marks a conversion by molar mass, not a printed value. Calls of active or inactive are those of the source. The calls are words filed in the database; no cut-off is given here.

Mast/stem cell growth factor receptor Kit, sequence (P10721 whole entry): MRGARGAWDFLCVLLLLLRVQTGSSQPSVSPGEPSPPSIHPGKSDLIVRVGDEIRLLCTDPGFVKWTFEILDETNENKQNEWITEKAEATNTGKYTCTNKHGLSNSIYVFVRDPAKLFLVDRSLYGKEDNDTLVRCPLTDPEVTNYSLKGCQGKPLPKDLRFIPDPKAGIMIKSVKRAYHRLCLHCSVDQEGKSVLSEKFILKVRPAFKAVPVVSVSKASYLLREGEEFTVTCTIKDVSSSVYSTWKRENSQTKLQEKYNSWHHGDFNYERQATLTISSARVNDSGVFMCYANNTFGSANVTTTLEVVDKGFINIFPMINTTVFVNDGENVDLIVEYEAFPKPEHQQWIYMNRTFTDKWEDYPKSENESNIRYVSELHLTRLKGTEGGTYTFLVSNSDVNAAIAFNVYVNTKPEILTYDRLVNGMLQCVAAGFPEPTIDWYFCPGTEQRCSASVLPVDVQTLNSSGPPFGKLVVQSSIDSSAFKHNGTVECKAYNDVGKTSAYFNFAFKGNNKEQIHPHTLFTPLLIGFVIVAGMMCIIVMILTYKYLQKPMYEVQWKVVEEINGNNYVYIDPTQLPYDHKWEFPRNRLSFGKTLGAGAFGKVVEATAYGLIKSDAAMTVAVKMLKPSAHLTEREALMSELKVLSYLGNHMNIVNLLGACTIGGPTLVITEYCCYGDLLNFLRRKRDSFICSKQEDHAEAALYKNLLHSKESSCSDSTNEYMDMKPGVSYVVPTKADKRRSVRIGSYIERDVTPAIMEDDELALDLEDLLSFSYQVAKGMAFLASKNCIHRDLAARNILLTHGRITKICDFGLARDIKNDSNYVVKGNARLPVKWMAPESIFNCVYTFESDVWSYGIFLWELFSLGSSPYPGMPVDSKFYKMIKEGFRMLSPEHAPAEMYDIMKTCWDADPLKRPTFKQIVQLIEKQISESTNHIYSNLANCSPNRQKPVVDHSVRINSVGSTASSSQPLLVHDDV
Proto-oncogene tyrosine-protein kinase Src, sequence (P12931 2-536 limits assumed): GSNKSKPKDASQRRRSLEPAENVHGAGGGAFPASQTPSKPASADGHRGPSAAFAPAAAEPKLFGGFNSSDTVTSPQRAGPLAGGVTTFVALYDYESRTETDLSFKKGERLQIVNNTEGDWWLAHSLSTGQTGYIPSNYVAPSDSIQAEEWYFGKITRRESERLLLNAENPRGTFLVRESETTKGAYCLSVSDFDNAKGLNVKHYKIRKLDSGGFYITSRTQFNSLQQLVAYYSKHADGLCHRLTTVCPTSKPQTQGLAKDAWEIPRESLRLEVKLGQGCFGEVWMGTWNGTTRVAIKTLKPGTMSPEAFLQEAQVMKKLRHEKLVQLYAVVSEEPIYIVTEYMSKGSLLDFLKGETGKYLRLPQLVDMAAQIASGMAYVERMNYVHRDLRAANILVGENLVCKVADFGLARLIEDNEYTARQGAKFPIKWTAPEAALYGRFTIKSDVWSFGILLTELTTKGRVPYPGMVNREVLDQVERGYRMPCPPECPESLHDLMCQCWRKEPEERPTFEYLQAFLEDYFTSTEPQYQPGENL

The term Ki denotes a dissociation constant, usually derived from enzyme kinetics or from competition with a known ligand. A high value points to weaker binding. Consider `CNc1cc(-c2c[nH]c(=O)c(NC(=O)c3ccc(N4CCCCC4)cc3)c2)ncn1`, for which the Ki turned out to be 0.02 µM in data set [1] and 0.083 µM in data set [2].
In data set [3], `CCc1ccc(C(=O)Nc2cc(-c3ccncc3)c[nH]c2=O)cc1` yielded a Ki of 0.53 µM.
As usually defined, the thermodynamic solubility is the concentration in solution at equilibrium with solid. One may read the logD as lipophilicity at a set pH, counting ionised and neutral species. A lower logD goes with lower lipophilicity. Regarding `CNc1cc(F)cc(-c2c[nH]c(=O)c(NC(=O)c3ccc(N4CCC[C@H]4CN4CCCC4)cc3)c2)c1`, the Ki in data set [3] came out at 0.02 µM; in [1] it was 0.08 µM; in [2], 0.4 µM; in [7], 0.3 µM. The compound also yielded a thermodynamic solubility in [4] of 34 µg/mL (≈ 69.4 µM). Also, the Papp A→B at 2 h in [5] was determined as 3.3 ×10⁻⁶ cm/s. The Papp B→A at 2 h in data set [6] was 19.9 ×10⁻⁶ cm/s. This compound gave a pH-dependent lipophilicity (logD) in data set [8] of 3.9.
Regarding `O=C(Nc1cc(-c2ccncc2)c[nH]c1=O)c1ccccc1`, in [3], the affinity, expressed as Ki, was 1.3 µM.
Regarding `CC(C)(C)c1ccc(C(=O)Nc2cc(-c3ccncc3)c[nH]c2=O)cc1`, the inhibitory constant (Ki) in [3] was determined as 0.12 µM; in [1], 0.011 µM; in data set [2], 0.027 µM; in data set [7], 1.32 µM.
Consider `CNc1cccc(-c2c[nH]c(=O)c(NC(=O)c3ccc(N4CCCCC4)cc3)c2)c1`, for which the inhibition constant Ki in [3] came out at 0.145 µM; in data set [1], 0.08 µM; in [2], 0.081 µM; in data set [7], 0.22 µM.
For the compound `CNc1cc(-c2c[nH]c(=O)c(NC(=O)c3ccc(N4CCCCC4)cc3)c2)ccn1`, the inhibition constant (Ki) in [1] was found to be 0.006 µM; in data set [2] it was 0.012 µM.
The matching figures for `CNc1cncc(-c2c[nH]c(=O)c(NC(=O)c3ccc(N4CCCCC4)cc3)c2)c1`: 1.05 µM and 0.27 µM.
On to `O=C(Nc1cc(-c2ccncc2)c[nH]c1=O)c1ccc(N2CCCC2)cc1`, for which the Ki in [3] worked out at 0.17 µM.
On to `CNc1cc(C#N)cc(-c2c[nH]c(=O)c(NC(=O)c3ccc(N4CCC[C@H]4CN4CCCC4)cc3)c2)c1`, for which the inhibition constant (Ki) in data set [3] was 0.027 µM; in [1], 0.41 µM; in data set [2], 0.4 µM; in data set [7] it was 0.48 µM. In addition, the solubility (thermodynamic) in data set [4] amounted to 23 µg/mL (≈ 46.3 µM). In addition, the Papp A→B at 2 h in [5] was 3.3 ×10⁻⁶ cm/s. Further, in [6], the Papp B→A at 2 h came to 16.4 ×10⁻⁶ cm/s. For the same compound, the log distribution coefficient (logD) in data set [8] turned out to be 3.9.
In the case of `O=C(Nc1cc(-c2ccncc2)c[nH]c1=O)c1ccc(N2CCCCC2)cc1`, the Ki is 0.032 µM in [1], 0.012 µM in data set [2] and 1.8 µM in data set [7].
Take `Cc1cccc(C(=O)Nc2cc(-c3ccncc3)c[nH]c2=O)c1`: the Ki in [3] was determined as 2.1 µM.
With `CNc1cccc(-c2c[nH]c(=O)c(NC(=O)c3ccc(N4CCCCC4)cc3)c2)n1`, the figures for the inhibitory constant (Ki) in data set [1] and in data set [2] were 0.069 µM and 0.148 µM, respectively.
Take `O=C(Nc1cc(-c2ccncc2)c[nH]c1=O)C1CCCCC1`: the Ki in data set [3] was > 30 µM.
On the same count and under the same terms, for `O=C(Cc1ccccc1)Nc1cc(-c2ccncc2)c[nH]c1=O` the value was > 30 µM; for `O=C(Nc1ccc(N2CCCCC2)cc1)c1cc(-c2ccncc2)c[nH]c1=O`, 0.14 µM.
As for `CN(C)c1ccc(C(=O)Nc2cc(-c3ccncc3)c[nH]c2=O)cc1`, the inhibition constant (Ki) in data set [3] is 0.21 µM; in data set [1], 0.008 µM; in data set [2], 0.046 µM; in data set [7] it was 2.8 µM.
Turning to `CNc1cncc(-c2c[nH]c(=O)c(NC(=O)c3ccc(N4CCC[C@H]4CN4CCCC4)cc3)c2)c1`, the inhibition constant Ki in [3] amounted to 0.02 µM; in data set [1], 0.14 µM; in [2] it was 1.3 µM; in [7] it was 0.28 µM. This compound also displayed a thermodynamic solubility in [4] of 115 µg/mL (≈ 243 µM). This compound also had a logD in data set [8] of 2.9.
The compound `O=C(Nc1cc(-c2ccncc2)c[nH]c1=O)c1ccc(C2CCCCC2)cc1` showed a Ki in [3] of 0.22 µM.
As usually defined, the inhibition is the drop in the measured response relative to a control, in per cent. Turning to `Nc1cc(-c2ccncc2)c[nH]c1=O`, the inhibition entry in [9] is “inactive”.
As for `CNc1nccc(-c2c[nH]c(=O)c(NC(=O)c3ccc(N4CCCCC4)cc3)c2)n1`, the Ki is 0.016 µM in [3], 0.005 µM in data set [1] and < 0.01 µM in data set [2].
On to `CNc1cncc(-c2c[nH]c(=O)c(NC(=O)c3ccc(N4CCCCC4)cc3)c2)n1`, for which the values for the Ki in [1] and in data set [2] were 0.11 µM and 0.155 µM, respectively.
Turning to `N#Cc1ccc(C(=O)Nc2cc(-c3ccncc3)c[nH]c2=O)cc1`, the Ki in data set [3] was > 6 µM. The compound also returned an inhibition in data set [10] of 15%.
On to `O=C(Nc1cc(-c2cccc(NC3CC3)n2)c[nH]c1=O)c1ccc(N2CCCCC2)cc1`, for which the results for the Ki in [3], in [1] and in data set [7] were > 2 µM, 0.12 µM and > 4 µM, respectively.
